Test results published in patent publication EP0357416A2, “Use of serotonin antagonists in the treatment of drug addiction” (GLAXO GROUP LIMITED, priority 1988, dated 1990).

Assays:
Alcohol-preferring rats = experiment: Alcohol consumption test in rats (computerised drinkometer); type: in vivo, Male Wistar rats; details: 6% v/v ethanol, 0.1µg/kg i.p. once daily for 7 days, 1h prior to the 12h dark cycle
Procedure: Male Wistar rats, initially weighing 200g, were housed individually in suspended stainless steel cages. The animal colony room was controlled for temperature (22-24°C) and humidity (55%) and was maintained on a 12-hour dark-light cycle which began at 1900 hours. Rats were allowed free access to food, water and ethanol solutions. Water and ethanol solutions were presented in two custom-designed drinkometer tubes mounted on the front of each rat cage. To avoid bias generated by a position preference, the tube positions were randomly reversed on each ethanol presentation. Water and ethanol consumption were continuously monitored daily during the drinking cycle (1900 to 0700h). Minute-to-minute ethanol and water volume consumptions were recorded using a computerised drinkometer system. This system consists of pressure transducers embedded in the base of the drinking tube and accurately detects significant volume changes as small as 0.1ml. Ethanol drinking solutions were prepared by diluting 95% ethyl alcohol with distilled water to form 6% v/v concentrations. From the minute-to-minute volume recordings, the following variables were calculated : total ethanol volume; total ethanol preference; weight-adjusted ethanol volume and total minutes of ethanol drinking activity. […]

Rats = experiment: Rat social interaction test (withdrawal from chronic treatment with a drug or substance of abuse); type: in vivo; details: rats withdrawn after diazepam 10mg/kg i.p. b.d. for 14 days; test compound 1µg/kg i.p. once daily immediately after withdrawal
Procedure: The method was based on that described by S. E. File, J. Neurosci. Methods, 1980, 2, 219-238. Rats were treated chronically with diazepam (10mg/kg i.p. b.d.) for 14 days and then withdrawn.

## Cc1[nH]cnc1CN1CCc2c(c3ccccc3n2C)C1=O.Cl [test compound, 2,3,4,5-tetrahydro-5-methyl-2-[(5-methyl-1H-imidazol-4-yl)methyl]-1H-pyrido[4,3-b]indol-1-one hydrochloride]
Alcohol-preferring rats
  ethanol drinking time: reduced
  ethanol intake: reduced
Rats
  withdrawal response (reduced social interaction): the withdrawal response was not observed
